{"source": "patent US8932853B2", "about": "“Method for manufacturing pancreatic-hormone-producing cells” (Takeda Pharmaceutical Company Limited, priority 2009, dated 2015)", "molecules": {"B1": {"name": "Wnt3a: differentiation-inducing factor generally used for endoderm induction along with activin A (protein, UniProt P56704 19-352, looked up)", "Protein Wnt-3a": "SYPIWWSLAVGPQYSSLGSQPILCASIPGLVPKQLRFCRNYVEIMPSVAEGIKIGIQECQHQFRGRRWNCTTVHDSLAIFGPVLDKATRESAFVHAIASAGVAFAVTRSCAEGTAAICGCSSRHQGSPGKGWKWGGCSEDIEFGGMVSREFADARENRPDARSAMNRHNNEAGRQAIASHMHLKCKCHGLSGSCEVKTCWWSQPDFRAIGDFLKDKYDSASEMVVEKHRESRGWVETLRPRYTYFKVPTERDLVYYEASPNFCEPNPETGSFGTRDRTCNVSSHGIDGCDLLCCGRGHNARAERRREKCRCVFHWCCYVSCQECTRVYDVHTCK"}, "B2": {"name": "Noggin: BMP antagonist (protein, UniProt Q13253 28-232, looked up)", "Noggin": "QHYLHIRPAPSDNLPLVDLIEHPDPIFDPKEKDLNETLLRSLLGGHYDPGFMATSPPEDRPGGGGGAAGGAEDLAELDQLLRQRPSGAMPSEIKGLEFSEGLAQGKKQRLSKKLRRKLQMWLWSQTFCPVLYAWNDLGSRFWPRYVKVGSCFSKRSCSVPEGMVCKPSKSVHLTVLRWRCQRRGGQRCGWIPIQYPIISECKCSC"}}, "key": {"[1]": {"tested_on": "progenitor cells of pancreatic hormone-producing cells induced from human iPS cells", "assay": "immunofluorescent staining with anti-insulin antibody after step (4)", "assay_type": "cell-based", "conditions": "each added alone in step (4), day 10 to day 21; forskolin 10 μM, dibutyl cAMP 500 μM, IBMX 200 μM, ALK5 inhibitor II 5 μM, A-83-01 0.5 μM, SB431542 10 μM, TGFβRI kinase inhibitor VIII 2 μM, dexamethasone 10 μM, hydrocortisone 5 μM, betamethasone 2 μM, beclomethasone 1 μM"}, "[2]": {"tested_on": "endodermal cells induced from human iPS cells", "assay_type": "cell-based", "conditions": "added simultaneously with dorsomorphin (1 μM) and retinoic acid (2 μM) day 3 to day 10; SB431542 5 μM, ALK5 inhibitor II 2 μM, A-83-01 0.2 μM, TGFβRI kinase inhibitor VIII 0.2 μM; vs dorsomorphin and retinoic acid alone", "protocol": "The dorsomorphin is an inhibitor of AMP-activated protein kinase (AMPK), and an inhibitor of ALK2, ALK3 and ALK6 from among activin receptor-like kinases (ALK). In addition, SB431542 is an inhibitor of ALK4, ALK5 and ALK7 from among ALKs.\nAs a control, the medium was changed to one added with dorsomorphin and retinoic acid alone (Ctrl). […] After the culture, the expression level of NGN3, which is progenitor cells of pancreatic hormone-producing cells marker, was measured in the same manner as in Example 1."}, "[3]": {"tested_on": "progenitor cells of pancreatic hormone-producing cells induced from human iPS cells", "assay": "quantitative RT-PCR of insulin and PDX1 after step (4)", "assay_type": "cell-based", "conditions": "added in step (4) from day 10; forskolin 10 μM, nicotinamide 10 mM, dexamethasone 10 μM, ALK5 inhibitor II 5 μM; measured on day 12, 16 and 20; vs control without inducing factors", "procedure": "The expression level of PDX1, which is pancreatic progenitor cells marker, and insulin, which is pancreatic β cells (insulin-producing cells) marker, was measured in the same manner as in Example 1.\nThe medium was changed once on day 7 of induction. […] The medium was changed every 3-4 days. After culture, the expression level of insulin was measured in the same manner as in Experimental Example 1.\nThe medium was changed once on day 7 of induction. […] The medium was changed every 5 days.\nAfter culture under each condition, the expression levels of insulin in the cells on day 12 of differentiation induction, on day 16 of differentiation induction and day 20 of differentiation induction were measured in the same manner as in Example 1."}, "[4]": {"tested_on": "endodermal cells induced from human iPS cells", "assay": "immunofluorescent staining with anti-PDX1 antibody after step (3)", "conditions": "added simultaneously with retinoic acid (2 μM) for 7 days, day 3 to day 10; Noggin 100 ng/ml, dorsomorphin 1 μM"}, "[5]": {"tested_on": "human iPS cells (253G1 strain)", "assay": "quantitative RT-PCR of BRACHYURY and SOX17 during induction of human iPS cells into endodermal cells, steps (1)-(2)", "assay_type": "cell-based", "conditions": "added with activin A (100 ng/ml) only the first day, CHIR99021 3 μM, Wnt3a 25 ng/ml, relative to GAPDH", "excerpt": "As a first stage for induction of differentiation of human iPS cells (iPS cells obtained by introducing Oct3/4 gene, Klf4 gene and Sox2 gene: see Nat Biotechnol 2008; 26: 101-106) into pancreas cells (particularly pancreatic hormone-producing cells), differentiation of human iPS cells was induced into endodermal cells by using a 96 well plate.\nAs the human iPS cells, 253G1 strain (iPS cell line produced by expressing OCT4/SOX2/KLF4 with retrovirus; Nature Biotechnology 26, 101-106) was used. Maintenance culture of the iPS cells in an undifferentiated state was performed using mitomycin-treated mouse fibroblast (MEFs) seeded on a gelatin-coated plate as feeder cells, and a medium for primate ES cells (ReproCELL Incorporated) added with 4 ng/ml bFGF (PeproTech EC) and 0.5× Penicillin-streptomycin (SIGMA) as a medium at 37° C. under 5% CO2. The medium was changed every day, the cell mass was detached every 4-5 days using a cell detachment solution for primate ES cell (ReproCELL Incorporated), and passaged by seeding on new feeder cells.\nAs a preculture for differentiation induction into endodermal cells, undifferentiated iPS cells were seeded in a 96 well plate. First, iPS cells maintained in a cell mass was treated with 0.25% trypsin-1 mM EDTA solution (GIBCO) and dissociated until they became single cells. Then, iPS cells dispersed in a medium were seeded in a 96 well plate at a density of 2×10^4 cells per well and cultured at 37° C. under 5% CO2 for 1 day. The 96 well plate used had been gelatin-coated, seeded with 5×10^3 MEFs and cultured at 37° C. under 5% CO2 for 5 hr. In addition, as a culture medium for seeding, a medium for primate ES cells added with 10 μM Y-27632 (Wako Pure Chemical Industries, Ltd.) was used. One day after seeding, the medium was changed to a medium for primate ES cells without Y-27632, and the cells were further cultured for 2 days until they became confluent.\nDifferentiation of iPS cells into endodermal cells was induced according to the following method. First, the confluent cells were washed with RPMI medium (GIBCO), RPMI medium containing various differentiation-inducing factors and 2% fetal bovine serum (FBS) was added, and the mixture was cultured for 1 day. […]\nTo examine variation in the expression of endoderm differentiation marker when cultured under each condition, differentiation-induced cells were recovered over time, and the total RNA fractions were purified using RNeasy96 (Qiagen). Using a PrimeScript RT reagent kit (Takara Bio Inc.), cDNA was synthesized, and quantitative RT-PCR was performed, whereby the gene expression level of BRACHYURY, which is a primitive streak marker, and SOX17, which is an endodermal marker, was measured."}, "[6]": {"tested_on": "human iPS cells (253G1 strain)", "assay": "immunofluorescent staining with anti-SOX17 antibody on day 3 of differentiation induction", "assay_type": "cell-based", "conditions": "added with activin A (100 ng/ml) for 1 day, then activin A alone 2 days, CHIR99021 3 μM, Wnt3a 25 ng/ml, SB415286 3 μM, SB216763 20 μM", "protocol": "To examine expression of SOX17 protein after culture for 3 days, immunofluorescent staining using an anti-SOX17 antibody was performed. After culture up to day 3 in the same manner as in FIG. 1, the cells were fixed with 2% para-formaldehyde (PFA) for 10 min and further for 20 min with 4% PFA at room temperature.\nWhether even use of a GSK3 inhibitor other than CHIR99021 in step (1) enables differentiation induction into endodermal cells was examined. The differentiation of human iPS cells into endodermal cells was induced according to the following method. […] Thereafter, the cells were washed with RPMI medium (GIBCO), and cultured for 1 day in RPMI medium containing various GSK3 inhibitors, activin A (100 ng/ml) and 2% fetal bovine serum (FBS). […] As a control, the cells were treated with a medium added only with activin A and free of GSK3 inhibitor. After culture for 1 day, the cells were washed with RPMI medium, and further cultured for 2 days in RPMI medium added with 2% FBS and 100 ng/ml activin A.\nTo examine expression of SOX17 protein on day 3 of differentiation induction, immunofluorescent staining using an anti-SOX17 antibody was performed. 4% PFA was added to the cells on day 3 of culture under each condition, the mixture was incubated at room temperature for 30 min to fix the cells."}}, "note": "Entries after “also recorded” stand apart in the source; their conditions may differ."}
{"molecule": "Cc1cccc(-c2n[nH]cc2-c2ccc3ncccc3n2)n1", "note": "[ALK5 inhibitor II, 2-[3-[6-methylpyridin-2-yl]-1H-pyrazol-4-yl]-1,5-naphthyridine]", "values": [{"measurement": "positive rate of insulin-expressing cells", "setting": "[1]", "value": "remarkably increased; also recorded: induced differentiation into insulin-positive cells with high efficiency"}, {"measurement": "expression level of NGN3", "setting": "[2]", "value": "increased remarkably"}, {"measurement": "expression level of insulin", "setting": "[3]", "value": "increased markedly; also recorded: high value"}]}
{"molecule": "c1cc(-c2cnn3cc(-c4ccc(OCCN5CCCCC5)cc4)cnc23)ccn1", "note": "[dorsomorphin, 6-[4-(2-piperidin-1-ylethoxy)phenyl]-3-pyridin-4-ylpyrazolo[1,5-a]pyrimidine]", "values": [{"measurement": "differentiation into PDX1-positive cells", "setting": "[4]", "value": "remarkably induced; also recorded: many cells were induced into PDX1-positive cells"}]}
{"molecule": "B1", "values": [{"measurement": "expression level of SOX17 (endodermal marker)", "setting": "[5]; then activin A alone 2 days, days 2-3", "value": "also lower than with a treatment with CHIR99021; also recorded: high value"}, {"measurement": "expression level of BRACHYURY (primitive streak marker)", "setting": "[5]; day 1 of differentiation induction", "value": "lower than with a treatment with CHIR99021"}, {"measurement": "ratio of cells expressing SOX17 protein", "setting": "[6]", "value": "a part of the cells also expressed SOX17 protein; also recorded: remarkably detected"}]}
{"molecule": "B2", "values": [{"measurement": "differentiation into PDX1-positive cells", "setting": "[4]", "value": "remarkably induced; also recorded: many cells were induced into PDX1-positive cells"}]}
